Laboratory results from US11458188B2, “ABC transporter peptide inhibitor XH-14C and application thereof” (HUNAN UNIVERSITY OF SCIENCE AND ENGINEERING, priority 2020, dated 2022).
Read-outs that look alike come from different tables or passages of the source. One block for each compound: values may come before it.

Key:
[1] = system: parental cancer cell line KB-3-1; assay: MDR reversal study (MTT), parental cancer cell line; format: cell-based; details: for IC50: read-out: IC50, chemotherapeutic alone
Procedure: (§1) The cytotoxicity of the peptide in different cell lines was measured by modified MTT assay. 5,000 cells per well were seeded in a 96-well microplate and cultured overnight. Peptides and positive control were added in a designated concentration gradient. The plate was incubated for 68 h, and then added with 20 μL of MTT solution (4 mg/mL) per well and incubated for another 4 h. The medium was pipetted, to which 100 μL of DMSO was added to dissolve the formaldehyde crystals. The absorbance was measured at 570 nm with a UV/Vis microplate spectrophotometer.

[2] = system: transfected empty vector cell line HEK293/pcDNA3.1; assay: MDR reversal study (MTT), transfected empty vector cell line; format: cell-based; details: for IC50: read-out: IC50, chemotherapeutic alone
Procedure: as §1

[3] = system: transfected ABCB1-overexpressing cell line HEK293/ABCB1; assay: MDR reversal study (MTT), transfected ABCB1-overexpressing cell line; details: Table 4, IC50 divided by IC50 in HEK293/pcDNA3.1
Procedure: as §1

[4] = system: drug-induced ABCB1-overexpressing cancer cell line KB-C2; assay: MDR reversal study (MTT), drug-induced ABCB1-overexpressing cell line; details: Table 3, IC50 divided by IC50 in KB-3-1
Procedure: as §1

[5] = system: drug-induced ABCC1-overexpressing cancer cell line KB-CV60; assay: MDR reversal study (MTT), drug-induced ABCC1-overexpressing cell line; format: cell-based; details: for IC50: Table 5, no reversal agent, read-out: IC50, chemotherapeutic alone
[6] = system: transfected ABCC1-overexpressing cell line HEK293/ABCC1; assay: MDR reversal study (MTT), transfected ABCC1-overexpressing cell line; format: cell-based; details: for IC50: Table 6, no reversal agent, read-out: IC50, chemotherapeutic alone
[7] = system: parental cells (KB-3-1); assay: Modified MTT cytotoxicity assay, parental cells; details: Homo sapiens, KB 3-1, 72 h, read-out: IC50 (cytotoxicity), KB-3-1
[8] = system: ABCB1-overexpressing cancer cells (KB-C2); assay: Modified MTT cytotoxicity assay, ABCB1-overexpressing cells; details: Homo sapiens, KB-C2, 72 h, read-out: IC50 (cytotoxicity), KB-C2
Procedure: as §1

[9] = system: ABCC1-overexpressing cancer cells (KB-CV60); assay: Modified MTT cytotoxicity assay, ABCC1-overexpressing cells; details: KB-CV60, 72 h, read-out: IC50 (cytotoxicity), KB-CV60

SMILES: COc1cccc2c1C(=O)c1c(O)c3c(c(O)c1C2=O)C[C@@](O)(C(=O)CO)C[C@@H]3O[C@H]1C[C@H](N)[C@H](O)[C@H](C)O1 [Adriamycin]
RF (resistant fold), chemotherapeutic alone ([1]; Table 3, no reversal agent): 1.00
RF (resistance fold), chemotherapeutic alone ([2]; Table 4, no reversal agent): 1.00
RF (resistance fold), chemotherapeutic alone [3]: 25.29
RF (resistant fold), chemotherapeutic alone [4]: 58.84

SMILES: N.N.[Cl][Pt][Cl] [Cisplatin]
IC50 ([1]; Table 3, no reversal agent): 1790 nM
IC50 ([1]; Table 5, no reversal agent): 1790 nM
IC50 ([2]; Table 4, no reversal agent): 2210 nM
IC50 ([2]; Table 6, no reversal agent): 2210 nM
IC50 [5]: 2230 nM
IC50 [6]: 2240 nM

SMILES: CN(C)C(=O)CCSC(SCCC(=O)O)c1cccc(/C=C/c2ccc3ccc(Cl)cc3n2)c1 (centres unmarked) [MK571]
RF of Cisplatin + MK571 ([2]; Table 6, MK571 5 μM): 0.99
RF of Vincristine + MK571 ([2]; Table 6, MK571 5 μM): 1.02

SMILES: CC(=O)O[C@H]1C(=O)[C@@]2(C)[C@H]([C@H](OC(=O)c3ccccc3)[C@]3(O)C[C@H](OC(=O)[C@H](O)[C@@H](NC(=O)c4ccccc4)c4ccccc4)C(C)=C1C3(C)C)[C@]1(OC(C)=O)CO[C@@H]1C[C@@H]2O [Paclitaxel]
IC50 [7]: 30 nM
RF (resistant fold), chemotherapeutic alone ([1]; Table 3, no reversal agent): 1.00
IC50 [8]: 1770 nM

IC50 [5]: 16100 nM
SMILES: CC[C@]1(O)C[C@H]2CN(CCc3c([nH]c4ccccc34)[C@@](C(=O)OC)(c3cc4c(cc3OC)N(C=O)[C@H]3[C@@](O)(C(=O)OC)[C@H](OC(C)=O)[C@]5(CC)C=CCN6CC[C@]43[C@@H]65)C2)C1 [Vincristine]
IC50 [7]: 95 nM
IC50 [9]: 16100 nM
RF (resistance fold), chemotherapeutic alone ([1]; Table 5, no reversal agent): 1.00
RF (resistance fold), chemotherapeutic alone ([2]; Table 6, no reversal agent): 1.00
RF (resistance fold), chemotherapeutic alone ([5]; Table 5, IC50 divided by IC50 in KB-3-1): 169.05
RF (resistance fold), chemotherapeutic alone ([6]; Table 6, IC50 divided by IC50 in HEK293/pcDNA3.1): 19.79
IC50 [6]: 2710 nM
